Measured values reported in paper PMC6321168, “Comparative Study on Excretive Characterization of Main Components in Herb Pair Notoginseng-Safflower and Single Herbs by LC–MS/MS” (Pharmaceutics, 2018).

Test: Fecal excretion study in rats after oral NS, SF or CNS (LC–MS/MS)
Assay type: in vivo
Settings: rat feces
Experimental: The animal room was set at constant temperature of 20 ± 2 °C with humidity of 50 ± 20% and 12/12 h light/dark cycle.
Eighteen male rats were fasted for 12 h before starting the experiment. The rats were divided into three groups at random (n = 6) and received NS (60 mg/kg), SF (50 mg/kg), and NS (60 mg/kg) + SF (50 mg/kg), respectively, by oral gavage. The rats were placed in separate metabolic cages. The urine samples were collected at 0–2, 2–4, 4–6, 6–8, 8–12, 12–24, 24–36, 36–48, 48–72, 72–96, and 96–120 h. The feces samples were collected at 0–4, 4–8, 8–12, 12–24, 24–36, 36–48, 48–72, 72–96, and 96–120 h. The urine volume was recorded and the dry feces were measured for each collection period. Samples were stored at −80 °C until analysis.
Feces samples were homogenized in ultrapure water (1 g/15 mL), soaked for 30 min, ultrasonically extracted for 30 min and centrifuged at 9000 rpm for 8 min. An aliquot of 200 μL feces water extraction solution was mixed with 10 μL of IS and then extracted three times with water-saturated n-BuOH (150 μL). The upper organic phase was combined and evaporated to dryness using a ZLS-2 vacuum centrifugal concentrator. The residue was treated as the urine sample and a 1-μL aliquot was injected for LC–MS analysis.
Ultra fast liquid chromatography (UFLC) analysis was performed using a Shimadzu UFLC system (DGU-20A3R Degasser; LC-20AD pump; SIL-20AXR Autosampler; CTO-20AC Column Oven) (Nakagyo-Ku, Koyoto, Japan). […] Because of the different endogenous substances in the urine and feces samples, different elution gradients were used to alleviate the matrix effects for the analytes.
The mass spectrometric detection was performed on an ABSciex 4500 Qtrap mass spectrometer (ABSciex, Foster City, CA, USA) equipped with a negative electrospray ionization (ESI) interface using multiple reaction monitoring (MRM). The MS parameters were optimized under the selected ion monitoring conditions as follows: curtain gas, 35 psi; ionspray voltage, 4500 V; turbo gas temperature, 450 °C; GS1, 45 psi; GS2, 45 psi. All data were acquired and analyzed by Analyst software (Versions 1.6.2) from ABSciex.
The accumulative excretion percentage was calculated for each analyte as follows. Excretion at time (t) = [concentration of the analyte (ng/mL) at t] × total urine (or feces) volume (mL) at t. The cumulative excretion up to time t (mg) was expressed as a percent (%) cumulative excretion by dividing by the total amount of the analyte ingested (mg): % Cumulative Excretion = 100 × (Σt excretiont) total ingested.

SMILES: CC(C)=CCC[C@](C)(O[C@@H]1O[C@H](CO[C@@H]2O[C@H](CO)[C@@H](O)[C@H](O)[C@H]2O)[C@@H](O)[C@H](O)[C@H]1O)[C@H]1CC[C@]2(C)[C@@H]1[C@H](O)C[C@@H]1[C@@]3(C)CC[C@H](O[C@@H]4O[C@H](CO)[C@@H](O)[C@H](O)[C@H]4O[C@@H]4O[C@H](CO)[C@@H](O)[C@H](O)[C@H]4O)C(C)(C)[C@@H]3CC[C@]12C [ginsenoside Rb1]
- concentration at 4 h (male, Sprague Dawley, oral CNS 110 mg/kg, 4 h): 555 ± 763 ng/mL
- concentration at 8 h (male, Sprague Dawley, oral CNS 110 mg/kg, 8 h): 1080 ± 431 ng/mL
- concentration at 12 h (male, Sprague Dawley, oral CNS 110 mg/kg, 12 h): 899 ± 96 ng/mL
- concentration at 24 h (male, Sprague Dawley, oral CNS 110 mg/kg, 24 h): 802 ± 25 ng/mL
- concentration at 36 h (male, Sprague Dawley, oral CNS 110 mg/kg, 36 h): 548 ± 36 ng/mL
- concentration at 48 h (male, Sprague Dawley, oral CNS 110 mg/kg, 48 h): 552 ± 30 ng/mL
- concentration at 72 h (male, Sprague Dawley, oral CNS 110 mg/kg, 72 h): 455 ± 377 ng/mL
- concentration at 96 h (male, Sprague Dawley, oral CNS 110 mg/kg, 96 h): 21 ± 20 ng/mL
- concentration at 4 h (male, Sprague Dawley, oral NS 60 mg/kg, 4 h): 1080 ± 156 ng/mL
- concentration at 8 h (male, Sprague Dawley, oral NS 60 mg/kg, 8 h): 767 ± 29 ng/mL
- concentration at 12 h (male, Sprague Dawley, oral NS 60 mg/kg, 12 h): 2060 ± 137 ng/mL
- concentration at 24 h (male, Sprague Dawley, oral NS 60 mg/kg, 24 h): 2180 ± 90 ng/mL
- concentration at 36 h (male, Sprague Dawley, oral NS 60 mg/kg, 36 h): 920 ± 48 ng/mL
- concentration at 48 h (male, Sprague Dawley, oral NS 60 mg/kg, 48 h): 1020 ± 52 ng/mL
- concentration at 72 h (male, Sprague Dawley, oral NS 60 mg/kg, 72 h): 120 ± 9 ng/mL
- concentration at 96 h (male, Sprague Dawley, oral NS 60 mg/kg, 96 h): 19 ± 4 ng/mL
- concentration at 120 h (male, Sprague Dawley, oral NS 60 mg/kg, 120 h): 17 ± 3 ng/mL
- Accumulative excretion amount (oral CNS 110 mg/kg, 4 h): 7.072 ± 10.199 µg
- Accumulative excretion percentage (oral CNS 110 mg/kg, 4 h): 0.192±0.275%
- Excretion amount (oral CNS 110 mg/kg, 4 h): 7.072 ± 10.199 µg
- Accumulative excretion amount (oral CNS 110 mg/kg, 8 h): 22.570 ± 15.790 µg
- Accumulative excretion percentage (oral CNS 110 mg/kg, 8 h): 0.607±0.426%
- Excretion amount (oral CNS 110 mg/kg, 8 h): 15.499 ± 6.228 µg
- Accumulative excretion amount (oral CNS 110 mg/kg, 12 h): 36.062 ± 14.935 µg
- Accumulative excretion percentage (oral CNS 110 mg/kg, 12 h): 0.968±0.409%
- Excretion amount (oral CNS 110 mg/kg, 12 h): 13.492 ± 4.335 µg
- Accumulative excretion amount (oral CNS 110 mg/kg, 24 h): 48.081 ± 16.475 µg
- Accumulative excretion percentage (oral CNS 110 mg/kg, 24 h): 1.282±0.443%
- Excretion amount (oral CNS 110 mg/kg, 24 h): 12.018 ± 3.497 µg
- Accumulative excretion amount (oral CNS 110 mg/kg, 36 h): 56.222 ± 17.772 µg
- Accumulative excretion percentage (oral CNS 110 mg/kg, 36 h): 1.501±0.476%
- Excretion amount (oral CNS 110 mg/kg, 36 h): 8.141 ± 2.259 µg
- Accumulative excretion amount (oral CNS 110 mg/kg, 48 h): 64.538 ± 19.434 µg
- Accumulative excretion percentage (oral CNS 110 mg/kg, 48 h): 1.723±0.522%
- Excretion amount (oral CNS 110 mg/kg, 48 h): 8.316 ± 2.614 µg
- Accumulative excretion amount (oral CNS 110 mg/kg, 72 h): 71.863 ± 19.005 µg
- Accumulative excretion percentage (oral CNS 110 mg/kg, 72 h): 1.923±0.515%
- Excretion amount (oral CNS 110 mg/kg, 72 h): 7.325 ± 6.432 µg
- Accumulative excretion amount (oral CNS 110 mg/kg, 96 h): 72.213 ± 19.048 µg
- Accumulative excretion percentage (oral CNS 110 mg/kg, 96 h): 1.931±0.512%
- Excretion amount (oral CNS 110 mg/kg, 96 h): 0.350 ± 0.350 µg
- Accumulative excretion amount (oral CNS 110 mg/kg, 120 h): 72.213 ± 19.048 µg
- Accumulative excretion percentage (oral CNS 110 mg/kg, 120 h): 1.931±0.513%
- Accumulative excretion amount (oral NS 60 mg/kg, 4 h): 15.357 ± 4.697 µg
- Accumulative excretion percentage (oral NS 60 mg/kg, 4 h): 0.361±0.113%
- Excretion amount (oral NS 60 mg/kg, 4 h): 15.357 ± 4.697 µg
- Accumulative excretion amount (oral NS 60 mg/kg, 8 h): 26.423 ± 8.057 µg
- Accumulative excretion percentage (oral NS 60 mg/kg, 8 h): 0.624±0.192%
- Excretion amount (oral NS 60 mg/kg, 8 h): 11.066 ± 3.551 µg
- Accumulative excretion amount (oral NS 60 mg/kg, 12 h): 56.148 ± 17.467 µg
- Accumulative excretion percentage (oral NS 60 mg/kg, 12 h): 1.312±0.411%
- Excretion amount (oral NS 60 mg/kg, 12 h): 29.724 ± 9.595 µg
- Accumulative excretion amount (oral NS 60 mg/kg, 24 h): 87.371 ± 26.505 µg
- Accumulative excretion percentage (oral NS 60 mg/kg, 24 h): 2.043±0.622%
- Excretion amount (oral NS 60 mg/kg, 24 h): 31.223 ± 9.132 µg
- Accumulative excretion amount (oral NS 60 mg/kg, 36 h): 100.721 ± 31.049 µg
- Accumulative excretion percentage (oral NS 60 mg/kg, 36 h): 2.354±0.725%
- Excretion amount (oral NS 60 mg/kg, 36 h): 13.350 ± 4.715 µg
- Accumulative excretion amount (oral NS 60 mg/kg, 48 h): 115.527 ± 36.105 µg
- Excretion amount (oral NS 60 mg/kg, 48 h): 14.806 ± 5.076 µg
- Accumulative excretion amount (oral NS 60 mg/kg, 72 h): 117.237 ± 36.600 µg
- Accumulative excretion percentage (oral NS 60 mg/kg, 72 h): 2.731±0.854%
- Excretion amount (oral NS 60 mg/kg, 72 h): 1.710 ± 0.525 µg
- Accumulative excretion amount (oral NS 60 mg/kg, 96 h): 117.502 ± 36.686 µg
- Accumulative excretion percentage (oral NS 60 mg/kg, 96 h): 2.741±0.854%
- Excretion amount (oral NS 60 mg/kg, 96 h): 0.264 ± 0.103 µg
- Accumulative excretion amount (oral NS 60 mg/kg, 120 h): 117.753 ± 36.774 µg
- Accumulative excretion percentage (oral NS 60 mg/kg, 120 h): 2.745±0.858%
- Excretion amount (oral NS 60 mg/kg, 120 h): 0.252 ± 0.100 µg
